Patent publication US4055640A, “Compositions and methods for controlling the growth of bacteria, fungi and algae using certain derivatives of N-(2,2-dichlorovinyl)salicylamides” (Nippon Kayaku Co., Ltd., priority 1975, dated 1977)

Key:
[1] = system: Cladosporium cucumerinum (cucumber scab); assay: Exterminating test on cucumber scab (Experimental Example 2); type: in vivo; parameters: scale not given here; settings: 5 days after inoculation
Protocol: Exterminating test on cucumber scab
(§1) The cucumber seeds (variety: Sagamihanjiro) were sown in pots (diameter 18 cm). Eighty percent (80%) wettable powder (contents of active compound: 80%) of the present invention was diluted with water to obtain a suspension. The suspension was sprayed over the cucumber seedlings of the stage of 3-4 leaves in an amount of 20 ml per pot. After 24 hours, these pots were inoculated by means of spray of spore suspension of Cladosporium cucumerinum. The thus-inoculated seedlings were placed in a moist chamber at 20° C for 24 hours. The pots were continuously kept in a greenhouse at 20° C. The following wettable powders on the market were used as controls.
70% wettable powder of 1,2-bis (3-methoxy carbonyl-2-thioureid) benzene (hereinafter referred to as "thiophanate methyl") on the market.
75% wettable powder of ethylene bis (dithiocarbamic acid) manganese (hereinafter referred to as "maneb") on the market. After 5 days of the inoculation, degrees attached by the pathogen were observed and the results were shown in Table 3 with an "Infected Index". The "Infected Index" was calculated as follows: [formula] A : Number of leaves which were killed by hard attack B : Number of leaves severely attacked
C : number of leaves slightly attacked
D : number of healthy leaves

[2] = system: cucumber seedlings (variety: Sagamihanjiro); assay: Phytotoxicity on cucumber seedlings (Experimental Example 2); type: in vivo
Protocol: as §1

[3] = system: seedling blight of rice plant (pathogen Fusarium sp. and Rhizoctonia sp.); assay: Exterminating test on seedling blight of rice plant (Experimental Example 1); type: in vivo; settings: 408 h; for Percentage of healthy seedlings at 0.25 g/box: soil, 0.25g/box a.i., 5% dust mixed with soil, read-out: Percentage of healthy seedlings
Protocol: Exterminating test on seedling blight of rice plant Nursery boxes (60 × 30 × 3 cm) were filled with soil which were contaminated with pathogen (Fusarium sp. and Rhizoctonia sp.) The dust in which the present compound was contained in a ratio of 5% by weight was added in the box in a ratio of 5 grams per box and mixed well with soil. Thereafter, seeds of rice plant (variety: Nihonbare) were sowed in drills at a rate of 0.3 liter per box and grown up in a lighting chamber at 17° C. After 7 days from the sowing, the boxes were carried out in the field. Furthermore, 10 days thereafter the observations were made. Four percent (4%) dust of 3-hydroxy-5-methyl isoxazol (hereinafter referred to as hydroxyisoxazol) on the market was used as a control and tested by the same method. The test results are shown in Table 2 with a "percentage of healthy seedlings". The percentage of healthy seedlings was calculated as follows: […]

[4] = system: Rhizoctonia solani (damping-off of cucumber); assay: Exterminating test on damping-off of cucumber (Experimental Example 3); type: in vivo; settings: soil drench 50 ml per pot, 10 days; for pest or weed control at 1000 ppm: Rhizoctonia solani, soil, 240 h, 1,000 ppm, read-out: Percentage of healthy seedlings
Protocol: Exterminating test on damping-off of cucumber
The pots (diameter, 12 cm) were filled with field soil and then soil infected by adding Rhizoctonia solani in an amount of 5 grams per pot uniformly into the pots. Thereafter, 10 seeds of cucumber (variety: Azumamidori) were sown in each pot.
Eighty percent (80%) wettable powder of the present invention was diluted with water to obtain a suspension and each pot was drenched with the suspension in an amount of 50 milliliters. Then, the pots were transferred to the greenhouse. Fifty percent (50%) wettable powder of pentachloronitro benzene (hereinafter referred to as PCNB) on the market was used as a control and tested by the same method. After 10 days of the inoculation, degrees attacked by the pathogen were observed and a "Percentage of healthy seedlings" was calculated. The "Percentage of healthy seedlings" was calculated as follows: [formula]

[5] = system: Fusarium wilt of cucumber; assay: Exterminating test on Fusarium wilt of cucumber (Experimental Example 4); type: in vivo, Fusarium oxysporum f, cucumerinum; settings: 500 ppm, soil drench 100 ml per pot, two weeks; for pest or weed control at 500 ppm: Fusarium, soil, 336 h, read-out: Percentage of healthy seedlings
Protocol: Exterminating test on Fusarium wilt of cucumber Twenty (20) grams of infected soil was added uniformly into each pot which was filled with steam sterilized field soil, then 18 seeds of cucumber (variety; Tokiwazibai) were sowed in each pot. Eighty percent (80%) wettable powder of the present invention was diluted with water to obtain a suspension, and each pot was drenched with the suspension in an amount of 100 ml. Fifty percent (50%) wettable powder of methyl-1-(butylcarbamoyl) 2-benzimidazol carbamate (hereinafter referred to as Benlate) on the market was used as a control and tested by the same method. After two weeks of planting, degrees attacked by the pathogen was observed and a "percentage of healthy seedlings" was calculated as follows: [formula]

[6] = system: Aspergillus niger, Penicillium citrinum, Cladosporium harbarum and chaetomium globosum; assay: Degree of growth inhibition of fungi on treated beach plates (Example 25); type: cell-based; parameters: scale not given here; settings: numerical rating, 2 weeks
Protocol: The emulsifiable concentrates which were prepared by Example 20 were diluted with water 400 times and 800 times to form emulsions.
The square plates of beach of which a side was 5 cm long and thickness was 5 mm were dipped into the emulsion for 2 minutes and dried for 24 hours at room temperature.
The square plates were placed on the surface of agar plates. The suspensions which contained spores of Aspergillus niger, Penicillium citrinum, Cladosporium harbarum and chaetomium globosum were respectively sprayed on the agar plates and the square plates.
The test fungi were cultivated in the incubator at the humidity of 95% and the temperature of 28° C for 2 weeks. The degree of growth inhibition is defined in terms of the following numerical ratings.

[7] = system: Xanthomonas citri (citrus canker); assay: Exterminating test on citrus canker (Experimental Example 6); type: in vivo; settings: Xanthomonas citri, 336 h; for pest or weed control at 1000 ppm: read-out: Effect Index, 1,000 ppm, 2 weeks after inoculation
Protocol: (§2) Exterminating test on citrus canker. 4-year-old summer orange seedlings, planted in unglazed pots having a diameter of 20 cm, were employed in this test. Eighty percent (80%) wettable powder of the present invention was diluted with water, and sprayed over the seedlings in an amount of 50 ml per pot. The leaves of the seedlings were inoculated Xanthomonas citri by means of a needle. After the inoculation, the seedlings were maintained in a moist chamber at 25° C for 24 hours. Then the pots were transferred into the greenhouse. Streptomycin 20% wettable powder was used as a control, and tested by the same method. After 2 weeks after the inoculation, degrees of disease attack were observed, and an "Effect Index" was calculated as follows: [formula]

summer orange seedlings = assay: Phytotoxicity on summer orange seedlings (Experimental Example 6); type: in vivo
Protocol: as §2

| Structure (SMILES) | Percentage of healthy seedlings at 0.25 g/box [3] | pest or weed control at 1000 ppm [4] | pest or weed control at 500 ppm [5] | further results |
| --- | --- | --- | --- | --- |
| S=C([S-])NCCNC(=S)[S-].[Mn+2] [Maneb, ethylene bis (dithiocarbamic acid) manganese, reference compound] |  |  |  | Infected Index ([1]; 1,500 ppm): 12.5; Phytotoxicity ([2]; 1,500 ppm): Nil |
| Cc1cc(O)no1 [Hydroxyisoxazol, 3-hydroxy-5-methyl isoxazol, reference compound] |  |  |  | Percentage of healthy seedlings at 0.2 g/box ([3]; 0.20g/box a.i., 4% dust on the market (control)): 70.6% |
| COC(=O)Oc1ccccc1C(=O)NC=C(Cl)Cl [Compound No. 16, O-methoxycarbonyl-N-(2,2-dichlorovinyl) salicylamide] | 71.5% | 100% | 38.2% |  |
| CC(=O)Oc1ccc(Br)cc1C(=O)NC=C(Cl)Cl [compound 8] | 71.3% | 75% | 73.3% | Degree of growth inhibition ([6]; 0.0125 %): 3; Degree of growth inhibition ([6]; 0.025 %): 3 |
| CC(=O)Oc1c(Cl)cc(Cl)cc1C(=O)NC=C(Cl)Cl [compound 32] | 69.8% | 75% | 73% |  |
| O=C(NC=C(Cl)Cl)c1ccccc1OC(=O)C(Cl)Cl [compound 14] | 70.8% | 95% | 62.8% | Infected Index ([1]; 500 ppm): 7.9; Phytotoxicity ([2]; 500 ppm): Nil; pest or weed control at 1000 ppm [7]: 73.2%; Phytotoxicity (summer orange seedlings; 1,000 ppm): Nil |
| O=C(NC=C(Cl)Cl)c1cccc([N+](=O)[O-])c1O [compound 31] | 70.2% | 85% | 46% |  |
| CCCCCCCCCCCC(=O)Oc1ccccc1C(=O)NC=C(Cl)Cl [compound 12] | 65% | 70% | 53.4% |  |
| O=C(NC=C(Cl)Cl)c1cc(Cl)cc(Cl)c1O [compound 33] | 70.4% |  | 48% |  |
| CC(=O)Oc1c(C(=O)NC=C(Cl)Cl)cccc1[N+](=O)[O-] [compound 35] | 71.2% | 95% | 79% |  |
| COc1ccccc1C(=O)NC=C(Cl)Cl [compound 15] | 70.2% | 60% | 51.2% | Infected Index ([1]; 500 ppm): 8.9; Phytotoxicity ([2]; 500 ppm): Nil |
| O=C(NC=C(Cl)Cl)c1cc(Br)ccc1O [compound 22] |  |  |  | Phytotoxicity (summer orange seedlings; 1,000 ppm): Nil |
| [H]/N=C(/N)N[C@H]1[C@H](O)[C@@H](O)[C@H](O[C@@H]2O[C@@H](C)[C@](O)(C=O)[C@H]2O[C@@H]2O[C@@H](CO)[C@H](O)[C@@H](O)[C@@H]2NC)[C@@H](N/C(N)=N\[H])[C@@H]1O [Streptomycin, reference compound] |  |  |  | pest or weed control at 200 ppm ([7]; read-out: Effect Index, 200 ppm, 2 weeks after inoculation): 28.7%; Phytotoxicity (summer orange seedlings; 200 ppm): Nil |
| Cc1ccc(C(=O)NC=C(Cl)Cl)c(O)c1 [compound 5] | 62% | 80% | 58.9% | Infected Index ([1]; 500 ppm): 10.7; Phytotoxicity ([2]; 500 ppm): Nil; pest or weed control at 1000 ppm [7]: 98.2%; Phytotoxicity (summer orange seedlings; 1,000 ppm): Nil |
| CC(C)COC(=O)Oc1ccccc1C(=O)NC=C(Cl)Cl [compound 18] | 72.1% | 100% | 42% | Degree of growth inhibition ([6]; 0.0125 %): 2; Degree of growth inhibition ([6]; 0.025 %): 3 |
| Cc1cccc(C(=O)NC=C(Cl)Cl)c1O [compound 4] | 76.6% | 90% | 68.7% |  |
| O=C(NC=C(Cl)Cl)c1cc(Br)ccc1O [compound 3] | 65.3% | 70% | 62.4% | Phytotoxicity (summer orange seedlings; 1,000 ppm): Nil |
| O=C(NC=C(Cl)Cl)c1cc(Br)ccc1[O-].O=C(NC=C(Cl)Cl)c1cc(Br)ccc1[O-].[Cu+2] [compound 27] |  |  |  | Percentage of healthy seedlings ([4]; 1,000 ppm): 85%; Percentage of healthy seedlings [5]: 58.0% |
